{"source": "patent US7674594B2", "about": "“Screening assay for inhibitors of TRPA1 activation by a lower alkyl phenol” (Redpoint Bio Corporation, priority 2006, dated 2010)", "key": {"[1]": {"molecular_target": "T1, hTRPM5 (Homo sapiens, UniProt Q9NZQ8)", "T1 construct": "expressed in transfected cells", "T1 sequence (Q9NZQ8 1-1165)": "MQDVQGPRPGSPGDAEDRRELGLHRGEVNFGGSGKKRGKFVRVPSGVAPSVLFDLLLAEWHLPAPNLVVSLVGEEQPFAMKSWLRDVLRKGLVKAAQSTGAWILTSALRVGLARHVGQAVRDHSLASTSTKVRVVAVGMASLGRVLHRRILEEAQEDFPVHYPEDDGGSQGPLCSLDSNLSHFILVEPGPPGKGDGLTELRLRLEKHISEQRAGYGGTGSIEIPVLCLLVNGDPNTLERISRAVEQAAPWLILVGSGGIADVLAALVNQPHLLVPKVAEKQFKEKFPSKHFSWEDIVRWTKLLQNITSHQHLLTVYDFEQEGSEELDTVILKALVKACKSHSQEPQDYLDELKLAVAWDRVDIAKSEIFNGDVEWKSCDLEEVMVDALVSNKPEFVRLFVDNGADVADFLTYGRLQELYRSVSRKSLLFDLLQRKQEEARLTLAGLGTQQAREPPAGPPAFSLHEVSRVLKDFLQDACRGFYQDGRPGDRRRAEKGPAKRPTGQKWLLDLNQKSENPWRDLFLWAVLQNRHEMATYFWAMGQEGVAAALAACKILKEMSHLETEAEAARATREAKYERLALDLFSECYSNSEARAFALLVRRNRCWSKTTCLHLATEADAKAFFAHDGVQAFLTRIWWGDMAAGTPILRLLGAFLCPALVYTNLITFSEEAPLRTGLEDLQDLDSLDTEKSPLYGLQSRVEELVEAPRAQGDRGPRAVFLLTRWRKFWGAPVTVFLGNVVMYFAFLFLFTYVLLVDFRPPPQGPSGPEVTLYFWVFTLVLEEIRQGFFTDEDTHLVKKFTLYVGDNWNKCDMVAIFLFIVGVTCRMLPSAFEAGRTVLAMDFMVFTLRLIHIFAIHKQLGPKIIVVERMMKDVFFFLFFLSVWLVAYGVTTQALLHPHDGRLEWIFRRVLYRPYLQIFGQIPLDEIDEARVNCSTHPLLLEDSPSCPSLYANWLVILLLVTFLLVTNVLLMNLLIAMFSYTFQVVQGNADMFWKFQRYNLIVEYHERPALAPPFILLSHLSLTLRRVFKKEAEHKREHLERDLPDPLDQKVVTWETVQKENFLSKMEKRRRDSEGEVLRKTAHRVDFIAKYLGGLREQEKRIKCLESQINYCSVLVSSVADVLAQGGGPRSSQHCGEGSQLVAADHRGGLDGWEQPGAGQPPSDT", "assay": "Membrane potential dye fluorescence assay, HEK293 or CHO cells expressing hTRPM5", "type": "cell-based", "conditions": "increasing concentrations, FIG. 6", "method": "(§1) Samples in a 384-well plate were evaluated in a 5 minute assay on the FLIPR-Tetra™ (Molecular Devices). The assay was performed on a FLIPR™ using the excitation 510-545 nm and emission 565-625 nm filter sets. TRPA1-Transfected HEK cells, 15,000/well, were seeded overnight on poly-D-lysine coated 384 well plates in 20 μl media. Membrane Potential Assay Dye Red (Molecular Devices), 20 μl/well, was added and the plates incubated for 1 hour in a 37° C. and 5% CO2 incubator. The plates were then removed from the incubator and equilibrated to room temperature for 15 minutes before reading on the FLIPR®. The plates were read on the FLIPR® for a total of 3 minutes. Baseline fluorescence was obtained on the FLIPR® for 10 seconds followed by addition (typically 10 μl) of each agonist by the FLIPR® and read for an additional 2 minutes and 50 seconds.\n(§2) HEK293 cells were stably transfected with one of hTRPA1, hTRPV1 or hTRPM5. CHO cells were stably transfected with one of hTRPM4B or TRPM5. Parental HEK293 and CHO cells were also used as a negative control."}, "[2]": {"molecular_target": "T2, hTRPM4B (Homo sapiens, UniProt Q8TD43)", "T2 construct": "expressed in transfected cells", "T2 sequence (Q8TD43 whole entry)": "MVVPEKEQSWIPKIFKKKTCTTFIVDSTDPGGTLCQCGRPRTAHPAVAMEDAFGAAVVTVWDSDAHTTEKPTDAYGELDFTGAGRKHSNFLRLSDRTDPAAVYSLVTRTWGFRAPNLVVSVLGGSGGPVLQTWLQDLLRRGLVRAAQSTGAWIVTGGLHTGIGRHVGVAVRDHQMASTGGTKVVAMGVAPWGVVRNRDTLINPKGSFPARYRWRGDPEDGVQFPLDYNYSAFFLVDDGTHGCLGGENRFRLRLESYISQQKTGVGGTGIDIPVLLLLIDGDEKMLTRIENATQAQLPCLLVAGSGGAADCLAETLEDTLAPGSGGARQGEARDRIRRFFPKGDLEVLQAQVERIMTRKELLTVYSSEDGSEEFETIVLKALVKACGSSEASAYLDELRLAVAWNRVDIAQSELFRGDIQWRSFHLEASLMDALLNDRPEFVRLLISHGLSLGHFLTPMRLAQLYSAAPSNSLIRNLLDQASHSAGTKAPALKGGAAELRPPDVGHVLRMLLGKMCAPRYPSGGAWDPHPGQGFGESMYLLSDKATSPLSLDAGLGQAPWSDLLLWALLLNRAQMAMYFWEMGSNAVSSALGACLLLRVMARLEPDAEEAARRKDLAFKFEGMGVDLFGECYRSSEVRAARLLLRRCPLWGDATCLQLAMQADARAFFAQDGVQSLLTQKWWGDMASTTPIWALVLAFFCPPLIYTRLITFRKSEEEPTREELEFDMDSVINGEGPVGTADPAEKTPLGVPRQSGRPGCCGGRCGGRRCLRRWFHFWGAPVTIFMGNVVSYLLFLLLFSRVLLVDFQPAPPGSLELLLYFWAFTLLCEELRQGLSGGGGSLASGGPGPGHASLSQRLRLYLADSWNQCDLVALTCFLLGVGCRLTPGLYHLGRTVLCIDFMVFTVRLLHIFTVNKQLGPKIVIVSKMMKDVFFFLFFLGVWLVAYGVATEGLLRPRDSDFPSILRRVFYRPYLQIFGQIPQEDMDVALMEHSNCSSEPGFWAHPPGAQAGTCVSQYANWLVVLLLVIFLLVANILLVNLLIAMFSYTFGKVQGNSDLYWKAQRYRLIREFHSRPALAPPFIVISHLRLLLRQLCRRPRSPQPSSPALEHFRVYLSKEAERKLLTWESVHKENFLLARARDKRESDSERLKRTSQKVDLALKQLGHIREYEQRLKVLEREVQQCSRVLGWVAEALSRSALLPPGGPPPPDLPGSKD", "assay": "Membrane potential dye fluorescence assay, CHO cells expressing hTRPM4B", "type": "cell-based", "conditions": "CHO, increasing concentrations, FIG. 6", "method": "as §1, §2"}, "[3]": {"test_system": "mice", "assay": "Taste aversion (lick) assay in mice", "type": "in vivo, mouse", "conditions": "mice, increasing concentrations", "method": "In this assay, the ability of identified lower alkyl phenols to evoke taste aversion in mice was measured. Mice were exposed to increasing concentrations of lower alkyl phenols."}, "[4]": {"molecular_target": "T3, hTRPA1 (Homo sapiens, UniProt O75762)", "T3 construct": "The full length hTRPA1 was amplified by PCR with Kpn1 and Xho1 restriction enzyme sites; expressed in transfected cells; also transient transfection", "T3 sequence (O75762 whole entry)": "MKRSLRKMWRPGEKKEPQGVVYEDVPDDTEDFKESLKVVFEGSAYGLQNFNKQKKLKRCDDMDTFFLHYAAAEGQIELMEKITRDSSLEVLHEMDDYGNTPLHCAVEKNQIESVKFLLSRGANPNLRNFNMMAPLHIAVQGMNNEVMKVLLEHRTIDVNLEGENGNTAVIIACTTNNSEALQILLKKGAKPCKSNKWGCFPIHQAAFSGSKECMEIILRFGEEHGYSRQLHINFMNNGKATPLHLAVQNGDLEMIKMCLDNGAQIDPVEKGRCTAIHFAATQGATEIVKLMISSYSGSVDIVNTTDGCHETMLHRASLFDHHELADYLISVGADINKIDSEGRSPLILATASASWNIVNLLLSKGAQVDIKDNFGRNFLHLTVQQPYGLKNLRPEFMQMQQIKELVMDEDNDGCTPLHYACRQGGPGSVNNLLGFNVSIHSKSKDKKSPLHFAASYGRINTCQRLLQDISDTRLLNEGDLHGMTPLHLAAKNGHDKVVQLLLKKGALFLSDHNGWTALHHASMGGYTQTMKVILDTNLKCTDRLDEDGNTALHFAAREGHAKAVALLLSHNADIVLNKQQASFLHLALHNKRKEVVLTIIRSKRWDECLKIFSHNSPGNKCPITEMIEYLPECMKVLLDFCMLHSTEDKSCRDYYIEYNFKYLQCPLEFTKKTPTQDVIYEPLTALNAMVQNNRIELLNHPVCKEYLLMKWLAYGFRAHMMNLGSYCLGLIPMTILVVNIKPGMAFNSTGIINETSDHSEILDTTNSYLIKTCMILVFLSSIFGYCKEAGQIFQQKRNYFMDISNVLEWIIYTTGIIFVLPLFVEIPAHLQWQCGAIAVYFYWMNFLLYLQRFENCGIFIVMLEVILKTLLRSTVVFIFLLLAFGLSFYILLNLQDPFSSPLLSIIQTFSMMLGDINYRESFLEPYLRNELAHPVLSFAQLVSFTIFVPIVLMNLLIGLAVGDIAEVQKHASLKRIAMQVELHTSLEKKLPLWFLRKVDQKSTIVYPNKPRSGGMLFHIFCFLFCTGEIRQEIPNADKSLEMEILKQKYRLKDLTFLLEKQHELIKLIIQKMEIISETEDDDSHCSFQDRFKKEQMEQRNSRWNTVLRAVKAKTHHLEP", "assay": "Membrane potential dye fluorescence assay (FLIPR/FLEXstation), activation of hTRPA1 in transfected HEK293 cells", "type": "cell-based", "method": "Once expression of TRPA1 was confirmed, 100 μl of the Blue or Red FMP dye (Molecular Devices) was added to each well of plates seeded with the transiently transfected cells. The plate was then incubated in a 37° C./5% CO2 incubator for 1 hour. The plate was read in a FLEXStation microplate reader (Molecular Devices) with an excitation of 530 nm and an emission of 565 nm. The fluorescence was monitored for 3 minutes upon exposure of the cells to a TRPA1 activating agent (e.g., cinnamaldehyde).\nas §1"}, "[5]": {"assay": "Human sensory panel, detection threshold in water", "type": "in vivo", "conditions": "FIG. 2B"}, "[6]": {"test_system": "parental HEK293 cells", "assay": "Membrane potential dye fluorescence assay in parental (non-transfected) HEK293 cells", "type": "cell-based, human", "conditions": "cells not expressing TRPA1"}, "[7]": {"molecular_target": "T3, hTRPA1", "assay": "siRNA knockdown of hTRPA1 in hTRPA1 HEK293 cells, membrane potential dye response", "type": "cell-based", "conditions": "increasing concentrations", "method": "HEK293 cells were transiently transfected with one of siRNA for hTRPA1, and one of Silencer pre-designed and validated siRNA (Ambion), GAPDH or negative siRNA control. 1×10^6 hTRPA1 stably transfected HEK 293 cells were plated in 35 mm dishes overnight. The next day 10 μM of each siRNA was transfected into these cells using siPORT Amine (Ambion) and incubated overnight. The following day, transfected cells were trypsinized and seeded into 384-well black, clear bottom, poly-D-lysine plates (Corning) at a density of 15,000 cells/well in a 20 μl volume and incubated in a 37° C./5% CO2 incubator overnight.\nThe cells were then loaded with membrane potential sensitive dye and subjected to the fluorescence assay described in Example 2."}, "[8]": {"molecular_target": "T4, hTRPV1 (Homo sapiens, UniProt Q8NER1)", "T4 construct": "expressed in transfected cells", "T4 sequence (Q8NER1 whole entry)": "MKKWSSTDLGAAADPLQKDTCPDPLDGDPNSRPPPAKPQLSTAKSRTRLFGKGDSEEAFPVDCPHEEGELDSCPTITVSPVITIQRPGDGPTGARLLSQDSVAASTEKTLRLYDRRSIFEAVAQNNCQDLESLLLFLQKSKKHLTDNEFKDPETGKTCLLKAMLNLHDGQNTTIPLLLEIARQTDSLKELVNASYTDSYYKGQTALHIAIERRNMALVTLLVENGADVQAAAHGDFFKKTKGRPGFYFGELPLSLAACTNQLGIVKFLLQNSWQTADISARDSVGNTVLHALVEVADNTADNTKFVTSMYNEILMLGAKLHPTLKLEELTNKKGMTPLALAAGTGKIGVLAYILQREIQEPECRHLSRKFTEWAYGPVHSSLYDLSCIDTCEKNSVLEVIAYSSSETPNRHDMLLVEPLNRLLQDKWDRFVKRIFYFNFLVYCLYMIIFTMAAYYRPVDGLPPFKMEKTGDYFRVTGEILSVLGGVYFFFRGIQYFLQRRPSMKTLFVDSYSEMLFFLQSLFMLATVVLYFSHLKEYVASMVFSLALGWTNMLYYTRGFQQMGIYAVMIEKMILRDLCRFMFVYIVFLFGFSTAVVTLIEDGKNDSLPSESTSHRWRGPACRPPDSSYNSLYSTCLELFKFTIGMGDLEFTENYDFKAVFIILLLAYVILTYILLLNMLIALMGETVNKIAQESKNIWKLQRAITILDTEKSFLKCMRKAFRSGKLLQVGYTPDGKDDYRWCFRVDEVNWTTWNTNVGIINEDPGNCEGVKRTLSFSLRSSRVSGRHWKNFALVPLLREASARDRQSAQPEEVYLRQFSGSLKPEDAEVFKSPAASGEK", "assay": "Membrane potential dye fluorescence assay, HEK293 cells expressing hTRPV1", "type": "cell-based", "conditions": "HEK293, increasing concentrations, FIG. 6", "method": "as §1, §2"}}, "note": "“Also recorded” adds a separate entry of the source.", "data": [{"smiles": "Cc1ccc(C(C)C)c(O)c1", "note": "[Thymol]", "values": [{"measurement": "response of cells expressing hTRPM5 (in words)", "setting": "[1]", "result": "did not generate the same increase in relative fluorescence"}, {"measurement": "response of cells expressing hTRPM4B (in words)", "setting": "[2]", "result": "did not generate the same increase in relative fluorescence"}, {"measurement": "taste aversion, licks/trial (in words)", "setting": "[3]", "result": "a decrease in licks/trial"}, {"measurement": "activation of TRPA1 over standard value from cells not expressing TRPA1", "setting": "[4]; at 10 μM, FIG. 3B", "result": "about 7 fold"}, {"measurement": "TRPA1 activation / agonist activity (in words)", "setting": "[4]; hTRPA1 HEK293 cells, increase in fluorescence of membrane potential dye", "result": "at a level similar to that of cinnamaldehyde; also recorded: generated an increase in relative fluorescence"}, {"measurement": "average detection threshold in water", "setting": "[5]", "result": "approximately 5 μM"}, {"measurement": "response of parental HEK293 cells (in words)", "setting": "[6]", "result": "no change in activation"}, {"measurement": "fluorescence response of cells transfected with hTRPA1 siRNA versus GAPDH or negative siRNA control (in words)", "setting": "[7]", "result": "did not increase as much as"}, {"measurement": "response of cells expressing hTRPV1 (in words)", "setting": "[8]", "result": "did not generate the same increase in relative fluorescence"}]}]}
